We go through 14 molecules from PubChem BioAssay (NCI).

Some test systems named below: DMS 114 small cell lung; HOP-18 NSCLC; XF 498 CNS; RXF-631 renal; M19-MEL melanoma; SNB-78 CNS; LXFL 529 NSCLC; DMS 273 small cell lung; DLD-1 colon; P388 leukemia; SN12K1 renal; P388/ADR leukemia.
Common to all, as to experiment: NCI tumour cell line growth inhibition, 48 h

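Cells were grown in 96-well plates and exposed to each compound for 48 hours at five concentrations; endpoints were interpolated linearly between bracketing concentrations, or set to the highest concentration if not reached. At the GI50, growth is halved. At the TGI there is no net growth.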

In the case of `Cc1ccc(CCC(=O)C(=O)O)s1`, the TGI in the test on DMS 114 small cell lung, in the test on HOP-18 NSCLC, in the test on XF 498 CNS, with RXF-631 renal, with M19-MEL melanoma and with SNB-78 CNS was over 100 µM throughout. Further, the TGI in the test with LXFL 529 NSCLC and in the test on DMS 273 small cell lung was over 100 µM throughout.
In the case of `C=C1C(=O)OC2CC3(C)OC3CC/C(C)=C/C(OC(C)=O)C12` (stereo not drawn), the TGI in the test on DMS 114 small cell lung amounted to 23 µM; in the test with HOP-18 NSCLC, 23.5 µM; with XF 498 CNS, 4.12 µM; with M19-MEL melanoma, 22.3 µM; with DLD-1 colon it was 7.81 µM; in the test on SNB-78 CNS, 35.1 µM. The results for the TGI with LXFL 529 NSCLC and with DMS 273 small cell lung were 5.92 µM and 31.2 µM, respectively.
`CCCC(=O)[O-].N.N.N.N.N.[Co+3].[O-][Cl+3]([O-])([O-])[O-]`: the GI50 with DLD-1 colon, with SNB-78 CNS and with LXFL 529 NSCLC was over 100 µM each time. The TGI with DLD-1 colon, in the test with SNB-78 CNS and with LXFL 529 NSCLC was over 100 µM in each case.
As to `O=c1oc2ccccc2c(O)c1C(C/C(CCN1CCCC1)=N\Nc1ccccc1)c1ccccc1` (stereo not drawn), the TGI in the test with HOP-18 NSCLC, with XF 498 CNS, with M19-MEL melanoma, in the test on DLD-1 colon, in the test on SNB-78 CNS and in the test on LXFL 529 NSCLC was over 100 µM each time.
Regarding `COC(=O)C(NC(=O)c1ccccc1)C(c1ccc(Cl)cc1)P(=O)(OC)OC` (stereo not drawn), the TGI in the test on XF 498 CNS, in the test on M19-MEL melanoma, with DLD-1 colon, with SNB-78 CNS, in the test on LXFL 529 NSCLC and with DMS 273 small cell lung was over 100 µM in each case.
Take `CN(C)/N=N/c1nc[nH]c1C(N)=O`: the TGI is over 98.3 µM in the test on P388 leukemia; 96.8 µM in the test with DMS 114 small cell lung; 39.2 µM in the test with HOP-18 NSCLC; 84.5 µM in the test on XF 498 CNS; over 94.7 µM in the test with M19-MEL melanoma; 88.3 µM in the test with DMS 273 small cell lung. Further, the TGI was 92.6 µM in the test with SN12K1 renal and over 96.5 µM in the test with P388/ADR leukemia.
Take `COc1ccc(N2C(=O)C3c4[nH]c5ccccc5c4C4CCCCC4C3C2=O)cc1` (stereo not drawn): the TGI in the test on DMS 114 small cell lung is over 100 µM; in the test on HOP-18 NSCLC, 67.7 µM; with M19-MEL melanoma, over 100 µM; in the test with DLD-1 colon, over 100 µM; in the test on SNB-78 CNS it was 12.1 µM; in the test on LXFL 529 NSCLC, 84.9 µM. In the test with DMS 273 small cell lung, this molecule came in with a TGI of 23.9 µM.
With `CCCCNC(=O)/N=C/c1c(O)c2ccccc2oc1=O`, the TGI in the test with DMS 114 small cell lung was over 100 µM; with XF 498 CNS, 65.1 µM; with M19-MEL melanoma it was over 100 µM; with SNB-78 CNS, over 100 µM; in the test with LXFL 529 NSCLC it was over 100 µM; in the test on DMS 273 small cell lung, over 100 µM.
Consider `COc1ccc(C[C@H](N)C(=O)N2C[C@@H](CO)C[C@@H](n3ccc(=O)[nH]c3=O)C2)cc1`, for which the TGI in the test with DMS 114 small cell lung, in the test on HOP-18 NSCLC, in the test with M19-MEL melanoma, in the test on DLD-1 colon, in the test with LXFL 529 NSCLC and with DMS 273 small cell lung was over 100 µM each time.
As to `COc1ccc(Sc2ccccc2N)cc1`, the TGI was over 100 µM with DMS 114 small cell lung; over 100 µM in the test with HOP-18 NSCLC; 40 µM with XF 498 CNS; over 100 µM in the test on M19-MEL melanoma; over 100 µM with DLD-1 colon; 97.3 µM in the test on SNB-78 CNS. The TGI in the test with LXFL 529 NSCLC and with DMS 273 small cell lung was over 100 µM each time.
Regarding `C/C=C(/C)C(=O)O[C@H]1[C@H](O)CC(c2ccc3c(c2O)C(O)=C2C(=O)C4(OC)C(O)=C(C(N)=O)C(=O)[C@H](CC(=O)c5ccccc5O)C4CC2[C@@]3(C)OC)O[C@@H]1C` (stereo partly drawn), the TGI in the test with DMS 114 small cell lung was found to be 0.0292 µM; in the test on HOP-18 NSCLC, 3.07 µM; in the test with M19-MEL melanoma it was 0.768 µM; in the test with DLD-1 colon it was 3.85 µM; in the test with LXFL 529 NSCLC it was 0.973 µM.
Turning to `NC(CSSCC(N)Cc1ccccc1)Cc1ccccc1` (stereo not drawn), the TGI in the test on DMS 114 small cell lung was over 100 µM; with XF 498 CNS, 57.2 µM; with M19-MEL melanoma, over 100 µM; with DLD-1 colon it was over 100 µM; in the test with SNB-78 CNS it was over 100 µM; in the test on LXFL 529 NSCLC, over 100 µM.
`COc1ccc2c(c1)OC[C@@H]1c3cc(O)c(OCc4ccccc4)cc3O[C@H]21`: the TGI with DMS 114 small cell lung was 82.6 µM; in the test on HOP-18 NSCLC it was over 100 µM; with XF 498 CNS, 68.4 µM; in the test on RXF-631 renal it was over 100 µM; with M19-MEL melanoma, 95.5 µM; in the test with DLD-1 colon, over 100 µM. Also, the TGI was 92.3 µM in the test on SNB-78 CNS, 74.9 µM in the test on LXFL 529 NSCLC and over 100 µM in the test with DMS 273 small cell lung.
For `COC1OC2=CCC3C(=O)NC(=O)C3C2[C@H](OCc2ccccc2)C1OCc1ccccc1` (stereo partly drawn), the TGI in the test on HOP-18 NSCLC stood at 6.37 µM; in the test with DLD-1 colon, 3.71 µM; in the test with SNB-78 CNS it was 4.12 µM; in the test on LXFL 529 NSCLC it was 3.09 µM.
